{"source": "ChEMBL document CHEMBL5252541", "about": "“Repurposing antipsychotic drugs into antifungal agents: Synergistic combinations of azoles and bromperidol derivatives in the treatment of various fungal infections” (Eur J Med Chem, 2017)", "key": {"[1]": {"experiment": "Cytotoxicity against HEK293 cells assessed as cell survival by XTT assay", "type": "toxicity, cell-based", "details": "human, read-out: Activity"}, "Candida albicans [2]": {"system": "Candida albicans", "experiment": "Additive antifungal activity against Candida albicans ATCC 64124 assessed as fractional inhibitory concentration index measured for 72 hrs in presence of fluconazole", "type": "functional"}, "Candida albicans [3]": {"system": "Candida albicans", "experiment": "Fungicidal activity against Candida albicans ATCC 64124 assessed as reduction in colony forming units at 8 times MIC incubated for 24 hrs by time kill assay", "type": "functional, organism-based"}, "Candida albicans [4]": {"system": "Candida albicans", "experiment": "Additive antifungal activity against Candida albicans ATCC MYA-2876 assessed as fractional inhibitory concentration index measured for 72 hrs in presence of voriconazole", "type": "functional"}, "[5]": {"experiment": "Cytotoxicity against mouse J774.A1 cells assessed as cell survival at 32 microg/ml by XTT assay", "type": "toxicity, cell-based", "details": "at 32 µg/mL, read-out: Activity"}, "Candida albicans [6]": {"system": "Candida albicans", "experiment": "Synergistic antifungal activity against Candida albicans ATCC 10231 assessed as compound MIC measured after 48 hrs in presence of itraconazole by checkboard based microplate reader analysis", "type": "functional"}, "[7]": {"experiment": "Cytotoxicity against mouse J774.A1 cells assessed as cell survival at 64 microg/ml by XTT assay", "type": "toxicity, cell-based", "details": "at 64 µg/mL, read-out: Activity"}, "Aspergillus terreus": {"system": "Aspergillus terreus", "experiment": "Antifungal activity against Aspergillus terreus ATCC MYA-3633 measured after 48 hrs by broth microdilution analysis", "type": "functional"}, "Candida albicans [8]": {"system": "Candida albicans", "experiment": "Antifungal activity against Candida albicans ATCC 10231 measured after 48 hrs by broth microdilution analysis", "type": "functional"}, "BEAS-2B [9]": {"system": "BEAS-2B", "experiment": "Cytotoxicity against human BEAS-2B cells assessed as cell survival at 8 microg/ml by XTT assay", "type": "toxicity, cell-based", "details": "dose 8 µg/ml"}, "Candida albicans [10]": {"system": "Candida albicans", "experiment": "Synergistic antifungal activity against Candida albicans ATCC 64124 assessed as compound MIC measured after 48 hrs in presence of fluconazole by checkboard based microplate reader analysis", "type": "functional"}, "Candida albicans [11]": {"system": "Candida albicans", "experiment": "Potency index, ratio of posaconazole MIC to test compound MIC for antifungal activity against Candida albicans ATCC 10231 measured after 48 hrs by broth microdilution analysis", "type": "functional"}, "[12]": {"experiment": "Cytotoxicity against human BEAS-2B cells assessed as cell survival by XTT assay", "type": "toxicity, cell-based", "details": "read-out: Activity"}, "Candida albicans [13]": {"system": "Candida albicans", "experiment": "Synergistic antifungal activity against Candida albicans ATCC 10231 assessed as compound MIC measured after 48 hrs in presence of fluconazole by checkboard based microplate reader analysis", "type": "functional"}, "HEK293 [14]": {"system": "HEK293", "experiment": "Cytotoxicity against HEK293 cells assessed as cell survival at 8 microg/ml by XTT assay", "type": "toxicity, cell-based", "details": "human, dose 8 µg/ml"}, "Nakaseomyces glabratus [15]": {"system": "Nakaseomyces glabratus", "experiment": "Synergistic antifungal activity against Candida glabrata ATCC 2001 assessed as fractional inhibitory concentration index measured for 72 hrs in presence of voriconazole", "type": "functional"}, "BEAS-2B [16]": {"system": "BEAS-2B", "experiment": "Cytotoxicity against human BEAS-2B cells assessed as cell survival up to 4 microg/ml by XTT assay", "type": "toxicity, cell-based", "details": "dose < 4 µg/ml"}, "Candida albicans [17]": {"system": "Candida albicans", "experiment": "Partial synergistic antifungal activity against Candida albicans ATCC MYA-1003 assessed as fractional inhibitory concentration index measured for 72 hrs in presence of voriconazole", "type": "functional"}, "Candida albicans [18]": {"system": "Candida albicans", "experiment": "Synergistic antifungal activity against Candida albicans ATCC 64124 assessed as fractional inhibitory concentration index measured for 72 hrs in presence of voriconazole", "type": "functional"}, "Nakaseomyces glabratus [19]": {"system": "Nakaseomyces glabratus", "experiment": "Antifungal activity against Candida glabrata ATCC 2001 measured after 48 hrs by broth microdilution analysis", "type": "functional"}, "Candida albicans [20]": {"system": "Candida albicans", "experiment": "Partial synergistic antifungal activity against Candida albicans ATCC 10231 assessed as fractional inhibitory concentration index measured for 72 hrs in presence of ketoconazole", "type": "functional"}, "J774.A1": {"system": "J774.A1", "experiment": "Cytotoxicity against mouse J774.A1 cells assessed as cell survival up to 4 microg/ml by XTT assay", "type": "toxicity, cell-based", "details": "dose < 4 µg/ml"}, "Candida albicans [21]": {"system": "Candida albicans", "experiment": "Synergistic antifungal activity against Candida albicans ATCC 90819 assessed as fractional inhibitory concentration index measured for 72 hrs in presence of voriconazole", "type": "functional"}, "Candida albicans [22]": {"system": "Candida albicans", "experiment": "Partial synergistic antifungal activity against Candida albicans ATCC 10231 assessed as fractional inhibitory concentration index measured for 72 hrs in presence of posaconazole", "type": "functional"}, "HEK293 [23]": {"system": "HEK293", "experiment": "Cytotoxicity against human HEK293 cells assessed as cell survival at 64 microg/ml by XTT assay", "type": "toxicity, cell-based", "details": "dose 64 µg/ml"}}, "note": "Activity calls are given as the source filed them. The rule behind the calls is not given here."}
{"compound": "O=C(CCCN1CCC(O)(c2ccc(Br)cc2)CC1)c1ccc(F)cc1", "note": "[BROMPERIDOL]", "values": [{"measurement": "viability", "setting": "[1]", "value": "> 100", "unit": "%"}, {"measurement": "fractional inhibitory concentration index (FICI)", "setting": "Candida albicans [2]", "value": 1.5}, {"measurement": "Activity", "setting": "Candida albicans [3]", "value": "Active"}, {"measurement": "fractional inhibitory concentration index (FICI)", "setting": "Candida albicans [4]", "value": 2}, {"measurement": "viability at 32 microg/ml", "setting": "[5]", "value": 50, "unit": "%"}, {"measurement": "MIC", "setting": "Candida albicans [6]", "value": 64, "unit": "µg/mL"}, {"measurement": "viability at 64 microg/ml", "setting": "[7]", "value": 30, "unit": "%"}, {"measurement": "MIC", "setting": "Aspergillus terreus", "value": "> 128", "unit": "µg/mL"}, {"measurement": "MIC", "setting": "Candida albicans [8]", "value": "> 128", "unit": "µg/mL"}, {"measurement": "Activity", "setting": "BEAS-2B [9]", "value": "Non-Toxic"}, {"measurement": "MIC", "setting": "Candida albicans [10]", "value": 64, "unit": "µg/mL"}, {"measurement": "Ratio", "setting": "Candida albicans [11]", "value": 8}, {"measurement": "viability", "setting": "[12]", "value": "> 100", "unit": "%"}, {"measurement": "MIC", "setting": "Candida albicans [13]", "value": 64, "unit": "µg/mL"}, {"measurement": "Activity", "setting": "HEK293 [14]", "value": "Non-Toxic"}, {"measurement": "fractional inhibitory concentration index (FICI)", "setting": "Nakaseomyces glabratus [15]", "value": 0.51}, {"measurement": "Activity", "setting": "BEAS-2B [16]", "value": "Non-Toxic"}, {"measurement": "fractional inhibitory concentration index (FICI)", "setting": "Candida albicans [17]", "value": 0.52}, {"measurement": "fractional inhibitory concentration index (FICI)", "setting": "Candida albicans [18]", "value": 0.19}, {"measurement": "MIC", "setting": "Nakaseomyces glabratus [19]", "value": "> 128", "unit": "µg/mL"}, {"measurement": "fractional inhibitory concentration index (FICI)", "setting": "Candida albicans [20]", "value": 0.75}, {"measurement": "Activity", "setting": "J774.A1", "value": "Non-Toxic"}, {"measurement": "fractional inhibitory concentration index (FICI)", "setting": "Candida albicans [21]", "value": 0.5}, {"measurement": "fractional inhibitory concentration index (FICI)", "setting": "Candida albicans [22]", "value": 0.75}, {"measurement": "Activity", "setting": "HEK293 [23]", "value": "Non-Toxic"}]}
